According to ChEMBL document CHEMBL1201862, “PubChem BioAssay data set” (2004):
The source made the active and inactive calls.

Key:
[1] = target: T1, Coagulation factor XII (Homo sapiens, UniProt P00748); assay type: functional;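 also: activated factor XIIa alpha cleaving a fluorogenic AMC peptide substrate; inhibitor potency from loss of enzyme activity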
T1 sequence (P00748 whole entry): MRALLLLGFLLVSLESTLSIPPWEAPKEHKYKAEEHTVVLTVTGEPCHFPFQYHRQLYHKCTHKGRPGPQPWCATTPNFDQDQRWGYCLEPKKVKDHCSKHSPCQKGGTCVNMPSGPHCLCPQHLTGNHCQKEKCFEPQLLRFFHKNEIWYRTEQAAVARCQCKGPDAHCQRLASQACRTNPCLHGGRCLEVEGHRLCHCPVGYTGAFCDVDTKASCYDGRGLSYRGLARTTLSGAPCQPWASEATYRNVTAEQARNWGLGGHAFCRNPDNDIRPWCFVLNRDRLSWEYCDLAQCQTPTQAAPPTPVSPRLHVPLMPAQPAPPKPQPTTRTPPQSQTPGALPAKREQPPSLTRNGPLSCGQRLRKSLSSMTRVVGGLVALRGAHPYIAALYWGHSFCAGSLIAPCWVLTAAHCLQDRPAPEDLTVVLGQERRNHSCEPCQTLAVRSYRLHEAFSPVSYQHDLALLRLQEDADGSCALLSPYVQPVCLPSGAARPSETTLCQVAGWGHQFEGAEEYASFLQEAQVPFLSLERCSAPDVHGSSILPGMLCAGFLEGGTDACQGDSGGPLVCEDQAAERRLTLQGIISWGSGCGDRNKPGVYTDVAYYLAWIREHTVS

[2] = tested on: HeLa; test: HeLa cell cytotoxicity, dose response, cytotoxicity control, ATP luminescence, cherry-pick samples (AID 687004); assay type: functional, cell-based; details: Homo sapiens
[3] = cells; assay type: functional, cell-based; details: HEK-CNG
[4] = target: Galanin receptor type 3 (Homo sapiens, UniProt O60755); test: Fluorescence-based cell-based primary high throughput dose response assay to identify antagonists of the Galanin Receptor 3 (GalR3).; assay type: functional
[5] = target: T2, COUP transcription factor 2 (Homo sapiens, UniProt P24468); test: Luminescence-based cell-based high throughput dose response assay to identify inhibitors of COUP-TFII (NR2F2).; assay type: functional;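 also: HEK293 cells transiently cotransfected with COUP-TFII expression vector and reporter; luciferase reporter luminescence driven by COUP-TFII from the pX2-168 reporter plasmid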
T2 sequence (P24468 whole entry): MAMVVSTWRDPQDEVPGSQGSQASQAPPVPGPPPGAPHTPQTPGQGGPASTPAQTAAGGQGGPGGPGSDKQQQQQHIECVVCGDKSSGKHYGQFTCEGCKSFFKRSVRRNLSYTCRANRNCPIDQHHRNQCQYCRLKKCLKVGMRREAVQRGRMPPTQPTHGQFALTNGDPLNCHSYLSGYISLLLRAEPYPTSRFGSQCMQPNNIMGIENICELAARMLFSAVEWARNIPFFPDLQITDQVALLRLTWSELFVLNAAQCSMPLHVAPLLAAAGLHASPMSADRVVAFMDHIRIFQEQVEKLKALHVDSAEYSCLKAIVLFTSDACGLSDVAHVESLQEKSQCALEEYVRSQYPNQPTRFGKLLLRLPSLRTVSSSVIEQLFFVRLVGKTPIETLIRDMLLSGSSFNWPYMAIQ

[6] = target: Fructose-bisphosphate aldolase (Mycobacterium tuberculosis, UniProt P9WQA3); test: Fluorescence-based biochemical high throughput dose response assay for inhibitors of the fructose-bisphosphate aldolase (FBA) of M. tuberculosis.; assay type: functional
[7] = cells; assay type: functional, cell-based
[8] = tested on: A-375; test: MITF: Counter assay: A375 proliferation Measured in Cell-Based System Using Plate Reader - 2084-03_Inhibitor_Dose_DryPowder_Activity. [Related pubchem assays (depositor defined):AID488944]; assay type: functional; details: Homo sapiens
[9] = cells; assay type: functional, cell-based; remark: listed apart in the source
[10] = tested on: A-375; test: A375 melanoma cell viability reduction, dose response, counter-screen for MITF modulator project, cherry-pick samples, set 2 (AID 540335); assay type: functional, cell-based; details: Homo sapiens
[11] = target: Histone-lysine N-methyltransferase NSD2 (Homo sapiens, UniProt O96028); assay type: biochemical
[12] = HepG2 cell cytotoxicity, dose response, cytotoxicity control, plate reader, cherry-pick, antagonist series (AID 743416); assay type: functional, cell-based
[13] = A549 cell cytotoxicity, dose response, cytotoxicity control, plate reader, cherry-pick, antagonist series (AID 743412); assay type: functional, cell-based
[14] = MC4R antagonists, dose response, counter-screen for LGR2 antagonist project, cell-based, plate reader, cherry pick (AID 743444); assay type: functional;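 also: transfected HEK 293 cells stimulated with alpha-MSH peptide; potency of inhibitors of the alpha-MSH evoked signal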
[15] = HEK293 cell cytotoxicity, dose response, cytotoxicity control, plate reader, cherry-picked samples (AID 743446); assay type: functional, cell-based
[16] = LGR2 antagonists, dose response, cell-based, HEK293, CRE-luciferase reporter, cherry pick, set 2 (AID 743343); assay type: functional;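 also: transfected cells were stimulated with diluted bursicon conditioned medium after compound addition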
[17] = Luminescence Cell-Based Dose Retest to Confirm Inhibitors of Cancer Stem Cells. [Related pubchem assays (depositor defined):AID2717, AID2721]; assay type: functional; details: Homo sapiens
[18] = target: Beta-2 adrenergic receptor (Homo sapiens, UniProt P07550); test: beta2AR agonists driving receptor internalization, dose response, cell-based, FAP fluorogen, flow cytometry, cherry pick 1 (AID 588763); assay type: functional
[19] = HEK293T cell cytotoxicity, dose response, cytotoxicity control for HIV Vif inhibitor project, cherry-picks (AID 652208); assay type: functional, cell-based

Chain of Galanin receptor type 3 (O60755 whole entry): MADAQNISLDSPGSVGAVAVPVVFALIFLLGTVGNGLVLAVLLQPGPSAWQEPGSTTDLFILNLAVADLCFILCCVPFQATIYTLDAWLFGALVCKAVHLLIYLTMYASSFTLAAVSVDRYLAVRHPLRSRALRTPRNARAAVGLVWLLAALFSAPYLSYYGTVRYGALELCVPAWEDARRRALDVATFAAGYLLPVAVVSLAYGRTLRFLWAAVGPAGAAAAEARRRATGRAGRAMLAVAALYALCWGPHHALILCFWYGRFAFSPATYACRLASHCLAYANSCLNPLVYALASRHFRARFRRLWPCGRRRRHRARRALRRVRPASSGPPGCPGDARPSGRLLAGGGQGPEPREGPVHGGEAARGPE
Chain of Beta-2 adrenergic receptor (P07550 whole entry): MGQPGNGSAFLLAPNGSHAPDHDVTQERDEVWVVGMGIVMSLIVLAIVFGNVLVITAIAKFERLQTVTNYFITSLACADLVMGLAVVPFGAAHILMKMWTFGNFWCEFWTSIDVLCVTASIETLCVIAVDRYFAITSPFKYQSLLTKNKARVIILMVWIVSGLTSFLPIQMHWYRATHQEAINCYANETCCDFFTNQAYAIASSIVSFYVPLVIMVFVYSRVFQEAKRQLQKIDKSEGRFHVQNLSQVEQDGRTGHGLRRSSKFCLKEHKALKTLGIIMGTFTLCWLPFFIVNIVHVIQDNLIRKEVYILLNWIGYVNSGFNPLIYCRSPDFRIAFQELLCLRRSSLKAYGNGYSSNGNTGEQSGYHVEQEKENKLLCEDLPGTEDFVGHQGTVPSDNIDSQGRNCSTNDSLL
Chain of Fructose-bisphosphate aldolase (P9WQA3 whole entry): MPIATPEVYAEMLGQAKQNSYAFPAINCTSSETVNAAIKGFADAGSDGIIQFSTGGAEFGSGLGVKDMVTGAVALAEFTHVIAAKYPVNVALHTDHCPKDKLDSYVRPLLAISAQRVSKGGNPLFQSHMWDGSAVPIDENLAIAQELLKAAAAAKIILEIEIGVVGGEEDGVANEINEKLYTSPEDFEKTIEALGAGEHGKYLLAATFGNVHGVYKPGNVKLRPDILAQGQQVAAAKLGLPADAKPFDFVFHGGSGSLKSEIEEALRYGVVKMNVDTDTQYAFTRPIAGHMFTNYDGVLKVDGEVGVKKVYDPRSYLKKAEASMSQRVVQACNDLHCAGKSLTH
Chain of Histone-lysine N-methyltransferase NSD2 (O96028 whole entry): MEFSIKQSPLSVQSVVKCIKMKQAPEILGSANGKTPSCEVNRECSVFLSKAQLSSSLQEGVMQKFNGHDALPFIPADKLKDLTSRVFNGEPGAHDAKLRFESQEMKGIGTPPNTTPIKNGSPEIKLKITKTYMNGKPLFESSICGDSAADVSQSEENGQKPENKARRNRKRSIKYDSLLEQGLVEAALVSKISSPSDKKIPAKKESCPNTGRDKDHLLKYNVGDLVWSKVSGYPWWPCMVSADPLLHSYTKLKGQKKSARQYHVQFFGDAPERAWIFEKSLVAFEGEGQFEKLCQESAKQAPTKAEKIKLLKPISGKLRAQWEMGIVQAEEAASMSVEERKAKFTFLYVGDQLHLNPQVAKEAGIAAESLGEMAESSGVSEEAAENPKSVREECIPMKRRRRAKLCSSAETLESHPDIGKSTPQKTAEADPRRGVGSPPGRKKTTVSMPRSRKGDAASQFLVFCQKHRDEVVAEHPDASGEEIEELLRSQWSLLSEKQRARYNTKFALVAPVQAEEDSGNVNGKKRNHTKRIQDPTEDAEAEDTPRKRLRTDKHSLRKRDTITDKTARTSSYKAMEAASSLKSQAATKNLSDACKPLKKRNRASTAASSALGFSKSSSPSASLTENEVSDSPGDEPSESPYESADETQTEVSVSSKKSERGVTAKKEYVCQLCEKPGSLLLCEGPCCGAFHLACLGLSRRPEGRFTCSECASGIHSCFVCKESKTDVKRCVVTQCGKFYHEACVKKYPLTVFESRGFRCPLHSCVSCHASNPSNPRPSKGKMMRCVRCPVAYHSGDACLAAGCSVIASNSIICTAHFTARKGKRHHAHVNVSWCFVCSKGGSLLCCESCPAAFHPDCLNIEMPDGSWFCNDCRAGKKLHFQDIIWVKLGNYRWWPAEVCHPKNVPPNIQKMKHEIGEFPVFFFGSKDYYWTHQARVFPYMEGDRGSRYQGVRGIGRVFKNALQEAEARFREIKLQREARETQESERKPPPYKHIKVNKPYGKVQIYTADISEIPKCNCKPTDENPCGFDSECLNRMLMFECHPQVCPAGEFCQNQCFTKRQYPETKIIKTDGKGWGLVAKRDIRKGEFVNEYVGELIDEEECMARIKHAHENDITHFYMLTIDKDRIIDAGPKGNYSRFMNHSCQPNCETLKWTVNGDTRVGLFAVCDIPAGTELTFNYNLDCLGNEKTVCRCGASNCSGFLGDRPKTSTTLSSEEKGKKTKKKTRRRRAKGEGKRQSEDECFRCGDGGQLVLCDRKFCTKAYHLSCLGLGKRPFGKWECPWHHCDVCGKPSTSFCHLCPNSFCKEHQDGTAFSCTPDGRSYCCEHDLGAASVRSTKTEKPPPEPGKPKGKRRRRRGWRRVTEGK

## Cc1ccc(CSc2ncnc3c2cnn3-c2ccc(C)cc2)cc1
[1]
  IC50: > 50 µM (inactive)
[2]
  AC50: 48.5 µM (active)

## Cc1c(Cl)cccc1NC(=O)N1CCCN(c2nc(-c3ccccc3)ns2)CC1
[3]
  EC50: > 29.9 µM (inactive)
[4]
  IC50: 1.53 µM (active)
[5]
  IC50: 13.4 µM (inactive)

## Cc1ccc(Nc2nnc(-c3ccccc3N)o2)cc1C
[6]
  IC50: 1.45 µM (active)
[7]
  EC50: 7.3 µM (active)
[8]
  AC50: > 35 µM (active)
[9]
  EC50: > 350 µM (not active)
[10]
  AC50: > 35 µM (active)

## COc1cc(/C=C2\C(=N)N3N=C(S(C)(=O)=O)SC3=NC2=O)ccc1OC(=O)c1cccs1
[11]
  AC50: > 20 µM (inactive)

## Cn1nnnc1Sc1ncnc2scc(-c3ccc(Cl)cc3)c12
[12]
  AC50: 12.1 µM (active)
[13]
  AC50: 7.88 µM (active)
[14]
  AC50: 23.2 µM (active)
[15]
  AC50: 13.9 µM (active)
[16]
  AC50: 14.3 µM (active)
[17]
  AC50: 3.48 µM (active)
[18]
  EC50: 8.38 µM (active)
[19]
  AC50: 11.8 µM (active)
